Among the data in PMC8139947, “Novel late-stage radiosynthesis of 5-[18F]-trifluoromethyl-1,2,4-oxadiazole (TFMO) containing molecules for PET imaging” (Scientific Reports, 2021) are aqueous solubility and logD values, retold here.

Where only a bound is given, the exact number is not on record here.

Series [1] is described as follows: Aqueous solubility / formulation for in vivo studies. The following applies: high concentration of DMSO (~ 50%) needed to solubilise the tracer. The format is physicochemical.
Series [2] can be described thus: Partition coefficient (LogD), octanol/PBS shake flask method. Format: physicochemical. The following applies: octanol / phosphate buffer pH 7.4, shake flask, radioactivity counted by gamma-counter; read-out: LogD (observed). From the text:
We determined the partition coefficients (LogD) using the octanol/PBS shake flask method.

On to `CC(C)(CNC(=O)c1cccc(-c2noc(C(F)(F)[18F])n2)c1)c1coc(-c2ccccc2)n1` [[^18F]TMP195, N-(2-methyl-2-(2-phenyloxazol-4-yl)propyl)-3-(5-([18F]trifluoromethyl)-1,2,4-oxadiazol-3-yl)benzamide], for which the aqueous solubility entry in series [1] is on record as “poor”. The logD (in general, the decadic logarithm of the distribution of all forms, ionised or not, between an organic phase and buffer at a given pH) in series [2] was over 6.
